Experimental data: publication PMC10192568, “Comparison of pharmacokinetic profiles of seven major bioactive components in normal and non-alcoholic fatty liver disease (NAFLD) rats after oral administration of Ling-Gui-Zhu-Gan decoction by UPLC-MS/MS” (Frontiers in Pharmacology, 2023)
Like-named read-outs stand apart in the source and are kept apart here.

Legend:
[1] = Stability of the seven components in rat plasma QC samples; assay type: physicochemical; conditions: n = 6; for Stability during 24 h at 4°C, RE: auto sampler
Experimental: Stability refers to the ability of the components to retain their chemical properties in the matrix. To analyze the stability of all components in the plasma, six replicates of QC samples at three concentrations were hereby prepared under each condition. The stability of the QC samples at three concentrations was analyzed under different storage conditions: −80°C for 30 days, after three freeze–thaw cycles, and 24 h in an auto sampler at 4°C.

[2] = Pharmacokinetic study of LGZGD components in plasma of normal and NAFLD rats after oral administration (UPLC-MS/MS); assay type: in vivo, Male Sprague–Dawley rats; conditions: for AUC0-∞ value decreased / C max value decreased: NAFLD rats compared with normal rats; for AUC(0-inf) / AUC(0-t) / Cmax / Tmax / half-life / MRT last: male, Sprague-Dawley, rat, plasma, po, 23 g/kg, male SD rats, oral LGZGD extract 23 g/kg, mean ± SD, n = 6; for MRT last: read-out: MRT0-t
Experimental: Male Sprague–Dawley rats, weighing 200–220 g, SPF grade, were purchased from Shanghai Sippr-BK laboratory animal Co. Ltd. (Shanghai, China) and raised in the Laboratory Animal Center of Shanghai University of Traditional Chinese Medicine. The rats were kept in an environmentally controlled condition: on a 12:12 h light–dark cycle (lights on at 7:00 a.m.) with regulated temperature and humidity, at a temperature of 22°C–24°C and a relative humidity of 60–65%. In the experiment, the rats in the normal group were fed a certified standard rat diet and tap water, while those in the model group were fed a high-fat diet for 8 weeks to construct the NAFLD model (high-fat diet: 2% cholesterol, 10% lard, 0.1% sodium cholate, 10% yolk powder, and 77.9% normal diet). The animal experiment program was approved by the Animal Committee of Shanghai University of Traditional Chinese Medicine (License No.: PZSHUTCM201016001).
An Agilent 1290 UPLC system was combined with an Agilent 6460 series MS/MS system (Agilent Technologies, Santa Clara, CA, United States) to quantify the analytes in the ESI-positive ionization mode. The mass spectrum conditions were as follows: a capillary voltage of 4,000 V; a gas flow rate of 10 L/min; a nebulizer of 30 psi; a gas temperature of 350°C; and a Delta EMV(+) of 200 V. Five microliters of the samples was injected into an Agilent SB-C18 column (2.1 mm × 50 mm, 1.8 μm particles). The analytes were separated using the gradient elution method, and the mobile phase was composed of water (0.05% V/V formic acid) (A) and acetonitrile (B) at a flow rate of 0.4 mL/min (0–1 min, 10–10% B; 1–5 min, 10–90% B; 5–7 min, 90–90% B; and 7–7.1 min, B 90–10%; rebalance for 2 min).
A plasma sample of 50 µL was placed in a 1.5 mL centrifuge tube with 10 µL of schisandrin (IS) solution (50 ng/mL) and mixed for 5 min. The samples were successively extracted with 500 µL of ethyl acetate and treated with 250 µL of methanol, which were then mixed for 5 min and centrifuged at 4°C for 10 min (at 18,000 rpm). All the supernatant was absorbed into another 1.5 mL centrifuge tube, dried under a gentle stream of nitrogen at 37°C, and then added with 50 µL of 50% methanol for reconstruction. After being centrifuged at 4°C for 10 min (at 18,000 rpm), 5 µL of the supernatant was extracted and injected into a chromatographic column for analysis, and the chromatograms were recorded.
The rats were randomly divided into the normal group and the model group. According to the preliminary experiment, the dose was adjusted to about eight times the normal dose ([Gu, 2020]; [Li et al., 2023]). […] The animal research program was approved by the Animal Committee of Shanghai University of Traditional Chinese Medicine. At 0, 0.083, 0.25, 0.5, 0.75, 1, 2, 4, 6, 8, 10, 12, 24, and 48 h after dosing, 150 µL blood samples were collected from the rats' orbital venous plexus into centrifuge tubes containing 10 IU of sodium heparin. After being centrifuged at 5,000 rpm (4°C) for 10 min, the plasma was transferred to 1.5 mL polypropylene tubes and stored at −80°C until the plasma samples were analyzed.
Important pharmacokinetic parameters, which included the maximum plasma concentration (C max), time to maximum concentration (T max), half-life (t 1/2), area under the curve (AUC0-t), and total area under the curve (AUC0-∞), were hereby calculated using the DAS 3.2.8 software. Meanwhile, the pharmacokinetic data of the normal and model rats were compared using the SPSS software (version 21.0). Besides, Spearman rank bivariate correlation coefficient was used to determine the correlation between AUC values and UGT1A1 and nine other transporters. All the calculated data were expressed as mean ± SD. When p < 0.05, the difference was considered significant and statistically significant; and when p < 0.01 or <0.001, the difference was considered very significant.

[3] = NAFLD rats compared with the normal group, oral LGZGD

Compound | Stability during 24 h at 4°C, RE ([1]; high QC level) | Stability during 24 h at 4°C, RE ([1]; low QC level) | Stability during 24 h at 4°C, RE ([1]; medium QC level) | Three freeze–thaw cycles, RE ([1]; high QC level) | −80°C for 30 days, RE ([1]; high QC level) | Three freeze–thaw cycles, RE ([1]; low QC level) | −80°C for 30 days, RE ([1]; low QC level) | Three freeze–thaw cycles, RE ([1]; medium QC level) | −80°C for 30 days, RE ([1]; medium QC level) | AUC0-∞ value decreased ([2]; oral LGZGD) | C max value decreased ([2]; oral LGZGD) | AUC(0-inf) ([2]; Model (NAFLD) group) | AUC(0-t) ([2]; Model (NAFLD) group) | Cmax ([2]; Model (NAFLD) group) | Tmax ([2]; Model (NAFLD) group) | half-life ([2]; Model (NAFLD) group) | MRT last ([2]; Model (NAFLD) group) | AUC(0-inf) ([2]; Normal group) | AUC(0-t) ([2]; Normal group) | Cmax ([2]; Normal group) | also measured
C=C1CCC[C@]2(C)C[C@]3(O)OC(=O)C(C)=C3C[C@@H]12 [Atractylenolide III, atractylenolide III] | −4.0% | 6.4% | 5.2% | −3.8% | 14.1% | 13.3% | −4.4% | −9.5% | −3.5% | 70.8% | 35.2% | 166 ± 45.1 ng·h/mL | 117 ± 16.1 ng·h/mL | 7.9 ± 1.3 ng/mL | 0.6 ± 0.1 h | 1100 ± 78 min | 19.3 ± 2.9 h | 568 ± 235 ng·h/mL | 352 ± 21.5 ng·h/mL | 12.2 ± 3.4 ng/mL | MRT0-t prolonged [2, 3]: 31.3%; Tmax ([2]; Normal group): 0.7 ± 0.1 h; half-life ([2]; Normal group): 612 ± 264 min; MRT last ([2]; Normal group): 14.7 ± 1.5 h
C=C(CC[C@@H](C(=O)O)[C@H]1[C@H](O)C[C@@]2(C)C3=CC[C@H]4C(C)(C)[C@@H](O)CC[C@]4(C)C3=CC[C@]12C)C(C)C [Dehydrotumulosic acid, dehydrotumulosic acid] | −2.3% | 3.8% | 1.6% | 5.5% | 3.0% | −12.8% | 3.2% | −4.3% | 10.2% | 75.1% | 62.4% | 43.5 ± 12 ng·h/mL | 43.4 ± 12 ng·h/mL | 3.8 ± 0.6 ng/mL | 1.8 ± 1.6 h | 300 ± 108 min | 10.4 ± 2.2 h | 175 ± 37.2 ng·h/mL | 142 ± 15.8 ng·h/mL | 10.1 ± 3 ng/mL | MRT decreased [2, 3]: 27.8%; Tmax ([2]; Normal group): 4 ± 1.8 h; half-life ([2]; Normal group): 1140 ± 732 min; MRT last ([2]; Normal group): 14.4 ± 2.7 h

More lines, main results first:

Stability during 24 h at 4°C, RE ([1]; high QC level) | Stability during 24 h at 4°C, RE ([1]; low QC level) | Stability during 24 h at 4°C, RE ([1]; medium QC level) | Three freeze–thaw cycles, RE ([1]; high QC level) | −80°C for 30 days, RE ([1]; high QC level) | Three freeze–thaw cycles, RE ([1]; low QC level) | −80°C for 30 days, RE ([1]; low QC level) | Three freeze–thaw cycles, RE ([1]; medium QC level) | −80°C for 30 days, RE ([1]; medium QC level) | AUC0-∞ value decreased ([2]; oral LGZGD) | C max value decreased ([2]; oral LGZGD) | AUC(0-inf) ([2]; Model (NAFLD) group) | AUC(0-t) ([2]; Model (NAFLD) group) | Cmax ([2]; Model (NAFLD) group) | Tmax ([2]; Model (NAFLD) group) | half-life ([2]; Model (NAFLD) group) | MRT last ([2]; Model (NAFLD) group) | AUC(0-inf) ([2]; Normal group) | AUC(0-t) ([2]; Normal group) | Cmax ([2]; Normal group) | Compound | also measured
−3.7% | 8.4% | 13.9% | −11.1% | −2.6% | −0.4% | −8.0% | 0.7% | 3.6% | 58.1% | 38.3% | 4410 ± 1420 ng·h/mL | 4330 ± 1330 ng·h/mL | 1190 ± 352 ng/mL | 0.6 ± 0.1 h | 396 ± 210 min | 6.2 ± 1.8 h | 10500 ± 1900 ng·h/mL | 10100 ± 1770 ng·h/mL | 1930 ± 484 ng/mL | O=C(O)/C=C/c1ccccc1 [Cinnamic acid, cinnamic acid] | Tmax ([2]; Normal group): 0.6 ± 0.1 h; half-life ([2]; Normal group): 768 ± 216 min; MRT last ([2]; Normal group): 8.2 ± 1.3 h
−8.9% | 5.2% | 6.7% | 2.2% | 2.6% | −0.4% | −5.2% | −7.7% | −4.9% | 50.6% | 65.0% | 26200 ± 14400 ng·h/mL | 25600 ± 14800 ng·h/mL | 1650 ± 1170 ng/mL | 13.2 ± 6.3 h | 534 ± 270 min | 15.6 ± 2.3 h | 89600 ± 28600 ng·h/mL | 88200 ± 27200 ng·h/mL | 7280 ± 2080 ng/mL | CC1(C)[C@@H](O)CC[C@]2(C)[C@H]3C(=O)C=C4[C@@H]5C[C@@](C)(C(=O)O)CC[C@]5(C)CC[C@@]4(C)[C@]3(C)CC[C@@H]12 [Glycyrrhetinic acid, glycyrrhetinic acid] | MRT0-t prolonged [2, 3]: 44.4%; Tmax ([2]; Normal group): 9.3 ± 1.6 h; half-life ([2]; Normal group): 360 ± 126 min; MRT last ([2]; Normal group): 10.8 ± 1.1 h
−3.3% | −1.6% | −5.6% | 9.7% | 2.7% | −5.9% | −1.0% | −3.7% | 1.7% | 70.8% | 77.4% | 40800 ± 25000 ng·h/mL | 40700 ± 25100 ng·h/mL | 2240 ± 1200 ng/mL | 8.1 ± 4.9 h | 324 ± 84 min | 16 ± 8 h | 82700 ± 10000 ng·h/mL | 81000 ± 10500 ng·h/mL | 6420 ± 2240 ng/mL | CC1(C)[C@@H](O[C@H]2O[C@H](C(=O)O)[C@@H](O)[C@H](O)[C@H]2O[C@@H]2O[C@H](C(=O)O)[C@@H](O)[C@H](O)[C@H]2O)CC[C@]2(C)[C@H]3C(=O)C=C4[C@@H]5C[C@@](C)(C(=O)O)CC[C@]5(C)CC[C@@]4(C)[C@]3(C)CC[C@@H]12 [Glycyrrhizic acid, glycyrrhizic acid] | Tmax ([2]; Normal group): 10.4 ± 1.7 h; half-life ([2]; Normal group): 378 ± 180 min; MRT last ([2]; Normal group): 13.7 ± 3.3 h
